Each block holds one compound with its values, some of them ahead of it.
What was measured:
[1] = Behaviour of the solid on filtration under ambient conditions / ambient humidity; type: physicochemical
Protocol: Crude product (351 g) from the above example was dissolved in 1.5 L of methanol, then 625 mL of methanol was removed in vacuo. For the initial crystallization experiments, this solution was placed in a glass round-bottomed flask, and the side was scratched with a metal spatula. The solution was then stored at −20° C. for several weeks until a crystalline precipitate formed. […] For subsequent preparations, the methanol solution was seeded with 100 mg of crystalline nicotinamide riboside chloride, and the solution was allowed to stand at ambient temperature while the product crystallized over the course of several hours. Using a Buchner funnel filtration apparatus, the crystals were filtered and washed with 200 mL of ice-cold methanol. The product was dried on the filter, open to the air, for 1.5 h, then under high vacuum (<[…]) at ambient temperature for 18 h. The yield was 157 g (34%) of a light yellow solid. The product contained 0.9 molar equivalents of methanol by ^1H NMR integration (i.e., nicotinamide riboside chloride ●0.9 methanol crystals). This residual methanol could not be removed by additional drying at <40° C. […]

[2] = Thermal decomposition of the crystals on heating under vacuum, confirmed by 1H NMR in D2O; type: physicochemical
Protocol: The crystalline nature of this product was confirmed by optical microscopy using polarized light (FIG. 5). A 50 mg portion of this material was dried under high vacuum (<1.0 mm Hg) and at ambient temperature for 48 h. […] The material completely decomposed, without melting, within 17 min at 100° C. at <1 mm Hg. (Decomposition was confirmed by ^1H NMR spectral analysis in D2O solution after the heating period.) In contrast, a sample could be heated at 80° C. for 1 h and <1 mm Hg with <3% decomposition. ^1H NMR (400 MHz, D2O) δ 9.63 (s, 1H, H2), 9.31 (d, 1H, J=5.9 Hz, H4), 9.01 (dd, 1H, J=8.0 Hz, 1.0 Hz, H6), 8.32 (dd, 1H, J=8.0 Hz, 5.9 Hz, H5), 6.29 (d, 1H, J=3.9 Hz, H1′), 4.55 (t, 1H, J=3.9 Hz, H2′), 4.50 (m, 1H, H4′), 4.38 (t, 1H, J=3.9 Hz, H3′), 4.08 (dd, 1H, J=12, 3 Hz, H5′), 3.93 (dd, 1H, J=12, 3, Hz, H5′); ^13C NMR (75 MHz, D2O) δ 165.8 (C7), 145.6 (C6), 142.6 (C4), 140.4 (C2), 133.9 (C3), 128.4 (C5), 99.9 (C1′), 87.6 (C4′), 77.4 (C2′), 69.7 (C3′), 60.1 (C5′); IR (cm−1) 3299, 1700, 1398, 1080, 982, 887, 795 (see FIG. 8). XRPD (degrees) 14.2, 17.1, 20.5, 22.7, 23.8, 25.1, 26.8, 34.2 X-ray powder diffraction (XRPD) data are included as FIG. 6. The XRPD serves as a fingerprint for the crystalline form of nicotinamide riboside chloride with only trace residual solvents present.

[3] = test system: Human primary dermal fibroblasts (HDFa); test: NAD measurement in dermal fibroblasts treated with NR chloride (ADPR cyclase enzymatic assay, absorbance 405 nm); type: cell-based; conditions: for NAD levels: FIG. 16
Protocol: Human primary dermal fibroblasts derived from adult human skins (HDFa, Life technologies, Grand Island, NY, Passage 2-4) were grown in Medium 106 (Life Technologies) supplemented with Low Serum Growth Supplement (LSGS) (Life Technologies) and seeded in 12-well plates with density at 2×10^5 cells per well and 1 ml of culture medium in each well.
Stock solution of NR chloride (MW: 322.742, GSK3002633B) was prepared freshly in water at 100 mM. Cells were treated with NR chloride at different concentrations as shown in […] for 6 and 24 hrs, washed twice with PBS containing 5 mM EDTA, and then subject to Nicotinamide adenine dinucleotide (NAD) measurement. In brief, acetonitrile (ACN) lysis buffer (Ammonium Acetate (50 mM) and 90% acetonitrile) was added to each well (200 μl/well) to lyse the cells at RT for 5-10 mins by gently rotating on a culture plate shaker at a low speed. Enzyme master mix (300 μM of 5-Amino-(3,4′-bipyridin)-6(1H)-one (Inamrinone) (Sigma-Aldrich), a substrate for ADP ribosyl cyclase (ADPR cyclase)) and 30 nM ADPR Cyclase (Sigma, St. Louis, Mont.), in 75 mM HEPES pH7 buffer (Life Technologies)) was added to the lysed cells (400 μl of enzyme master mix/well). Enzymatic reaction was incubated at RT for ˜30 min. At the end of incubation, the supernatant (200 μl) of the reaction solution from each well was transferred to each well of a 96-well plate and absorbance was read twice in the 96-well plate at 405 nm using a plate reader (Spectra Maxplus, Molecular Devices, Sunnyvale, Calif.). A mixture of enzyme master mix and ACN extraction solution at 2:1 ratio was used as a blank reference.
Isolated, chemically-pure NAD (Sigma) was used as a positive control. Other NAD assays are known in the art or otherwise publically available as a kit (see, e.g., Neubert, D., et al., Biochim. Biophys. Acta, 1964, 92, 610-12; Emanuelli, M., et al. J. Chromatog. B. 676, 13-18; and NAD/NADH Cell-Based Assay Kit by Cayman Chemical).

SMILES: NC(=O)c1ccc[n+]([C@@H]2O[C@H](CO)[C@@H](O)[C@H]2O)c1.[Cl-] [Example 3, 3-carbamoyl-1-((2R,3R,4S,5R)-3,4-dihydroxy-5-(hydroxymethyl)tetrahydrofuran-2-yl)pyridin-1-ium chloride]
behaviour on the filter under ambient conditions [1]: could be filtered under ambient conditions while remaining free-flowing

time to complete decomposition, without melting ([2]; 100° C. at <1 mm Hg): ≤ 17 min | decomposition ([2]; heated at 80° C. for 1 h and <1 mm Hg): < 3%
SMILES: NC(=O)c1ccc[n+]([C@@H]2O[C@H](CO)[C@@H](O)[C@H]2O)c1.[Cl-] [Example 4, nicotinamide riboside chloride]
resistance to decomposition upon heating ([2]; compared with amorphous forms of nicotinamide riboside): far more resistant to decomposition upon heating than amorphous forms

NAD levels ([3]; 6 hrs treatment): dose-dependently increased NAD levels | NAD levels ([3]; 24 hrs treatment): dose-dependently increased NAD levels
SMILES: NC(=O)c1ccc[n+]([C@@H]2O[C@H](CO)[C@@H](O)[C@H]2O)c1.[Cl-] [NR chloride, nicotinamide riboside chloride]
intracellular NAD levels ([3]; FIG. 16, time not given): dose-dependently increases intracellular NAD levels
